The values that follow are results of earlier work, collected in patent US20100151020A1, “DRUG […] SYSTEM FOR ZERO ORDER, ZERO ORDER BIPHASIC, ASCENDING OR […] […] OF METHYLPHENIDATE” (priority 2008, published 2010).

Where a name gives a salt, the structure may show the parent alone. Read-outs that look alike come from different tables or passages of the source.

For data set [1] the following is noted: reports.
The conditions of data set [2]: chronic methylphenidate dosing.

With `COC(=O)C(c1ccccc1)C1CCCCN1` (stereo not shown) [methylphenidate HCl], in data set [1], the “AD/HD patients responding positively” value is on record as 70-90%. Moreover, for the setting “adults”, the drug excreted was 80%. Moreover, the drug excreted (children) was 67%. For the same compound, under “children, immediate release”, the time to peak was 1.9 h and the “time to peak, range” value was 0.3 to 4.4 h. Also, for the setting “immediate release”, the pharmacokinetic half-life is 2 to 3 h. The primary adverse events entry in data set [2] was “nervousness, insomnia, and appetite suppression”.
